Data as given in patent publication US6979553B2, “Use of Nernstein voltage sensitive dyes in measuring transmembrane voltage” (Caliper Life Sciences, Inc., priority 1999, dated 2005).
Where a name gives a salt, the structure may show the parent alone. Read-outs that look alike come from different tables or passages of the source.

Key:
[1] = system: peripheral blood T lymphocytes; type: cell-based, human; conditions: for change in DiBAC4(3)/Syto 62 ratio (depolarization): resting T lymphocytes
Text: Resting or mitogen activated peripheral blood T lymphocytes (90% CD3+) were flowed through the chip and mixed with ion channel modulators accessed through the Sipper™ capillary. Average DiBAC4(3)/Syto 62 ratios ±SE (n=2–6) are shown.
Thus, cell based assays of calcium flux and membrane potential were run in the lab-on-a-chip system. A novel approach for measurement of membrane potential was used to detect hyperpolarization and depolarization with high sensitivity. The microfluidic format reduced reagent, sample and cell consumption. As few as 50–200 cells and as little as 10 nl of sample were used per test. […]

THP-1 cells [2] = assay: Lab-on-a-chip membrane potential assay, uptake of DiBAC4(3) and Syto 62 by THP-1 cells; type: cell-based
Text: The microfluidic technology used in the LabChip® system for this example utilizes microchannels etched into quartz chips coupled with a sampling micropipette that can access samples from microtitre plates. The LabChip® system accesses liquid samples sequentially from a microplate, mixes the samples with cells flowing through a microchannel and reads out cellular responses using fluorescence detection. The system was applied to the measurement of changes in transmembrane potential. […].
As show in FIG. 8, panel A and panel B, the lab-on-a-chip system which was used consisted of quartz chip 801 containing microchannels 803 and 805 connected to Sipper™ capillary 807, robot 809 to move microplate 811, light source 813, optics 815 and fluorescence reader 817, vacuum pump 816, and a computer to control system functions and record data. Light from light source 813 (e.g., mercury arc lamp (470 nm) or an argon ion laser) was focused onto microchip 801 with through optics 815 comprising an objective (10×, 0.3 NA air). Fluorescence was collected with the objective, split into two channels (525 nm and 700 nm) and detected with fluorescence reader 817 which comprises photodiodes. Fluorescence readings were acquired at 20–90 Hz. The three axis robot 809 was used to position microplate 811 so that chip 801 could sample microplate 811, whether in a 96 or 384 well configuration.
A schematic of chip 801 with 90×20 μm channels is shown in FIG. 8, panel B. Flowing cells from cell well 819 were mixed with samples introduced through the Sipper™ capillary 807 (20 μm ID). The flow rate in the detection channel was varied from 2 to 10 nl/s by varying the vacuum applied to waste well 821. Agonists or dyes were added from side well 823. The incubation time in detection channel 803 was varied between 10 and 75 seconds by varying the applied pressure and the location of detector elements (e.g., optics 815) relative to chip 801.
As shown in panel A, the potential sensitive fluorescence signal was derived not from the slow re-equilibration of dyes that were pre-loaded into cells but rather from the rate of uptake of charged, membrane-permeable dyes. Using both an anionic dye, DiBAC4(3), and a cationic dye, Syto 62, yielded a ratiometric measurement with increased sensitivity. Cells were mixed on chip with test samples and dyes stored on the chip. After a short incubation in the detection channel, the fluorescence of individual cells was detected.
As shown in panel B, peaks in green (DiBAC) and red (Syto 62) fluorescence corresponded to THP-1 cells mixed with either buffer, UTP or quinidine sulfate flowing past the detector following a 75 second dye incubation.
As shown in panels C and D, the rate of uptake of DiBAC4(3) (C) and Syto 62 (D) was determined from the average fluorescence peak height as a function of the incubation time for resting cells (∘), cells hyperpolarized with UTP (▪) and cells depolarized with quinidine sulfate (Δ). Compared to resting cells, the rate of increase of DiBAC4(3) peak heights was 48±11% (mean±se, n=5) higher for depolarized cells and 43±5% lower for hyperpolarized cells. Similarly, the rate of increase of the Syto 62 peaks was 7±2% lower for depolarized cells and 37±3% higher for hyperpolarized cells.
As shown in panel A, a calibration curve relating the ratio of DiBAC4(3)/Syto 62 fluorescence (n=20 to 130 cells) to membrane potential was constructed by increasing the K+ conductance of the THP-1 cells and varying the extracellular K+ concentration. […]

THP-1 cells [3] = assay: Transmembrane potential assay on Caliper 3B5 microfluidic processor, THP-1 cells; type: cell-based; conditions: 50 μM UTP in high sodium buffer, resting approximately −40 mV
Procedure: Changes in the cell transmembrane potential were detected in microfluidic processor by the mixing of cells and the dyes DiBAC4(3) and SYTO62. […] Dye uptake by THP-1 cells was measured on a Caliper® 3B5 microfluidic processor (FIG. 5). One of the long channels of the processor contained THP-1 cells (3×10^6 cells/ml) suspended in high sodium buffer as above, while the other long channel contained 400 nM DiBAC4(3) and 10 μM SYTO62 in high sodium buffer. Transmembrane potential was set to resting potential, hyperpolarization or depolarization by placing either high sodium, 50 μM UTP in high sodium or high potassium buffer in the short arm. Resting, hyperpolarized and depolarized potentials are estimated to be approximately −40, −100 and 0 mV respectively. The microfluidic processor was maintained at room temperature (˜23° C.). DiBAC4(3) and SYTO62 fluorescence was read after the cells had traveled approximately 90 seconds from the junction (ΔP˜1″H2O). Panel A depicts the average fluorescence ratio (DiBAC4(3)/SYTO62) for runs of ˜80 cells each. Error bars are standard error values. As shown in panel B, Histograms show the expected voltage dependent changes in the fluorescence intensities of individual cells as a function of transmembrane potential.

Compound: Clc1ccccc1C(c1ccccc1)(c1ccccc1)n1ccnc1 [clotrimazole]
- change in DiBAC4(3)/Syto 62 ratio ([1]; mitogen activated T lymphocytes in the presence of ionomycin, 30 μM, p<0.05): ratio increases significantly
- change in DiBAC4(3)/Syto 62 ratio (depolarization) ([1]; 30 μM): not

Compound: O=c1ccn([C@@H]2O[C@H](COP(=O)(O)OP(=O)(O)OP(=O)(O)O)[C@@H](O)[C@H]2O)c(=O)[nH]1 [UTP]
- rate of increase of DiBAC4(3) peak heights, lower compared to resting cells (THP-1 cells [2]; hyperpolarized cells): 43±5%
- rate of increase of the Syto 62 peaks, higher compared to resting cells (THP-1 cells [2]; hyperpolarized cells): 37±3%
- transmembrane potential (hyperpolarized), estimated (THP-1 cells [3]): ~−100 mV

Compound: C=C[C@H]1C[N@@]2CC[C@H]1C[C@@H]2[C@@H](O)c1ccnc2ccc(OC)cc12 [quinidine sulfate]
- change in the average DiBAC4(3)/Syto 62 ratio (THP-1 cells [2]; average±SD, n=3): dose dependent depolarization
- rate of increase of the Syto 62 peaks, lower compared to resting cells (THP-1 cells [2]; depolarized cells): 7±2%
- rate of increase of DiBAC4(3) peak heights, higher compared to resting cells (THP-1 cells [2]; depolarized cells, mean±se, n=5): 48±11%

Compound: C[C@H](CCC(=O)O)C[C@H](C)C[C@H](C)C(=O)/C=C(\O)[C@H](C)C[C@H](C)C/C=C/[C@@H](C)[C@@H](O)[C@@H](C)[C@@H](O)C[C@@H]1CC[C@@](C)([C@H]2CC[C@@](C)([C@@H](C)O)O2)O1 [ionomycin]
- DiBAC4(3)/Syto 62 ratio (hyperpolarization) ([1]; mitogen activated T lymphocytes in the presence of ionomycin, compared to resting T lymphocytes, p<0.05): lower ratio compared to resting T lymphocytes
- change in DiBAC4(3)/Syto 62 ratio (depolarization) ([1]; 15 μM): not

Compound: margatoxin (TIINVKCTSPKQCLPPCKAQFGQSAGAKCMNGKCKCYPH; UniProt P40755 1-39, looked up)
- change in DiBAC4(3)/Syto 62 ratio (depolarization) ([1]; 36 μM, p<0.05): significant increase in DiBAC4(3)/Syto 62 ratio
